Results taken from article PMC8198750, “Synthesis of Novel Halogenated Heterocycles Based on o-Phenylenediamine and Their Interactions with the Catalytic Subunit of Protein Kinase CK2” (Molecules, 2021).
Like-named read-outs stand apart in the source and are kept apart here.

Tests used:
hCK2α [1] = target: T1, hCK2α (Homo sapiens, UniProt P68400); assay: nanoDSF thermal shift assay (low-volume differential scanning fluorimetry); type: binding
T1 construct: made in house
Method: Binding affinities of the newly synthesized compounds towards hCK2α were assessed with the low-volume differential scanning fluorimetry (nanoDSF). The shift of the temperature of thermal denaturation in the presence of 10-fold excess of a particular ligand relative to the apo form of hCK2α (ΔTm) can be used as a semi-qualitative measure of the binding affinity or inhibitory activity.
hCK2α was expressed and purified according to the method described previously. Thermal stability of 1:10 protein–ligand complexes was monitored on Prometheus (Nanotemper Technologies, München, Germany) using PR-C002 Prometheus NT.48 Standard Capillaries using temperature ramp of 20 to 80 °C with 1 °C/min heating rate. Temperature-induced variation in ratio fluorescence intensity at 330 and 350 nm was globally analyzed using the procedure described before. All experiments were performed in 25 mM Tris–HCl (pH 8, 0.5 M NaCl) with 2% (v/v) DMSO. Protein was kept in constant 2.5 μM concentration.

[2] = RP-HPLC chromatographic hydrophobicity index; type: physicochemical; conditions: C18, 2:1 methanol:20 mM aqueous ammonium formate pH 8; τ = (Tret − T0)/T0
Method: RP-HPLC method, a fast and efficient alternative for standard logD determination in octan-1-ol/water system, was used to assess the hydrophobicity of all synthesized compounds. This method has been successfully used in our laboratory for halogenated benzotriazole derivatives, including the evaluation of the effect of hydrophobicity on their binding to the catalytic subunit of protein kinase CK2 [24, 43].
Chromatographic hydrophobicity index (log(τ)) was determined with the reverse phase HPLC (RP-HPLC). Column: Nova-pak® C18 4 μm, 4.6 × 250 mm. Eluent: 2:1 methanol: 20 mM aqueous ammonium formate (pH = 8) (v/v). Flow: 0.7 mL/min. Detector wavelength: 280 nm. The individual retention times (Tret) were converted to a hydrophobicity scale according to the formula τ = (Tret − T0)/T0. where the retention time of unretained solvent (T0) was estimated to 300 s.

hCK2α [3] = target: T1, hCK2α; assay: Inhibitory activity against human CK2α (ADP-Glo kinase assay); type: biochemical; conditions: inhibitor 1 nM–1 mM, triplicate
Method: The inhibitory effect of 8 selected compounds was monitored based on the luminescence measured with the SpectraMax iD3 Multi-Mode Microplate Reader (Molecular Devices, San Jose, CA, USA), using the previously described method with the aid of ADP-Glo kinase assay (Promega, Walldorf, Germany). Inhibitor concentration varied in the range of 1 nM–1 mM (see Supplementary Figure S38). Each experiment was repeated in triplicate and IC50 values were further estimated globally using the sigmoidal dose-response equation implemented in Origin 9.4 package (www.originlab.com, upgraded 20.07.27).

CK2 = conditions: cited from earlier work
[4] = system: epidermoid carcinoma A-431; assay: MTT cell viability assay, A-431; type: cell-based; conditions: Homo sapiens, 72 h
Excerpt: (§1) The following human cell lines were used in this study: (i) epidermoid carcinoma A-431 (ATCC® CRL-1555), (ii) colorectal carcinoma HCT116 (ATCC® CCL-247), (iii) colorectal carcinoma HCT116p53^−/−, and (iv) normal fibroblasts BJ (ATCC® CRL-2522). The HCT116p53^−/− cell line was a kind gift from professor Bert Vogelstein (John Hopkin’s University, Baltimore, MD, USA). The remaining cell lines were purchased from ATCC (Manassas, VA, USA) or Sigma Aldrich by Merck (Darmstadt, Germany).
(§2) Cells were cultured in Dulbecco’s modified Eagle’s or Roswell Park Memorial Institute (RPMI)-1640 medium supplemented with 10% or 15% fetal bovine serum (Gibco by Thermo Fisher Scientific, Waltham, MA, USA) under standard culture conditions (37 °C, 5% CO2) in a humidified incubator with atmospheric oxygen.
(§3) The viability of cells was assayed by measuring the conversion of MTT (3-(4,5-dimethylthiazol-2-yl)-2,5-diphenyltetrazolium bromide) to the formazan (the rate of this reaction is proportional to the number of surviving cells). Cells were seeded in a 96-well plate at a density of 1500–2500 cells per well, 24 h before treatment. Treatment with tested compounds and cisplatin (0.25–160 µM) was performed for 72 h. MTT stock solution (Sigma-Aldrich) was added at the final concentration 0.5 mg/mL. After 2 h of incubation at 37 °C, water-insoluble formazan was dissolved in a lysis buffer containing 20% SDS, 50% DMF, 2.5% hydrochloric acid, and 2.5% acetic acid. Optical densities were measured at 570 nm using a scanning multi-well spectrophotometer ([…] Detection Platform; Beckman Coulter, Brea, CA, USA).

normal fibroblasts BJ = assay: MTT cell viability assay, BJ; type: cell-based, human; conditions: for IC50: Homo sapiens, Fibroblast, MTT, 72 h
Excerpt: as §1, §2, §3

[5] = system: colorectal carcinoma HCT116; assay: MTT cell viability assay, HCT116; type: cell-based; conditions: Homo sapiens, HCT-116, 72 h, read-out: IC50 HTC116
Excerpt: as §1, §2, §3

[6] = system: colorectal carcinoma HCT116p53−/−; assay: MTT cell viability assay, HCT116p53−/−; type: cell-based; conditions: Homo sapiens, 72 h
Excerpt: as §1, §2, §3

[7] = 10-fold excess of ligand (1:10 protein–ligand), 2.5 μM protein, relative to apo hCK2α, 2% DMSO, pH 8
[8] = 10-fold excess of ligand (1:10 protein–ligand), 2.5 μM protein, relative to apo hCK2α, 2% DMSO, pH 8, read-out: ΔTm
[9] = read-out: IC50 against CK2 / inhibitory activity

T1 sequence (P68400 whole entry): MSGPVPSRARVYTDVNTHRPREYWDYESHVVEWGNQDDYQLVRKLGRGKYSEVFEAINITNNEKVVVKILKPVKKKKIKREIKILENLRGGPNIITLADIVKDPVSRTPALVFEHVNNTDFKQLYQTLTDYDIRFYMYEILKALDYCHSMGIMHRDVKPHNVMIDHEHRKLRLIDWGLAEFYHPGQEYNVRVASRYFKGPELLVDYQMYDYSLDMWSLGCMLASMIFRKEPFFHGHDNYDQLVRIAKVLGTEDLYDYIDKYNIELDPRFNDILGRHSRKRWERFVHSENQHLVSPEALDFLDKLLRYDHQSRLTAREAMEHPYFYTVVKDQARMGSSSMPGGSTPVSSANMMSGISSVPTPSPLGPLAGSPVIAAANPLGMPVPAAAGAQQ

Row | log(τ) HPLC-derived hydrophobicity index [2] | ΔTm at 25 µM (hCK2α [1]; [8]) [°C] | Compound | also measured
1 | 0.495 | 0.1 ± 0.1 | Clc1cc2nccnc2cc1Cl [Compound 6c, 6,7-dichloroquinoxaline] | 
2 | 0.082 | 2.4 ± 0.1 | O=c1[nH]c2cc(I)c(I)cc2[nH]1 [Compound 5e, 5,6-diiodo-1H-benzo[d]imidazol-2(3H)-one] | IC50 (hCK2α [3]): 13 ± 2 µM
3 | 0.618 | 0.4 ± 0.1 | Ic1cc2nccnc2cc1I [Compound 6e, 6,7-diiodoquinoxaline] | 
4 | 0.588 | 0.4 ± 0.1 | Brc1cc2nccnc2cc1Br [Compound 6d, 6,7-dibromoquinoxaline] | 
5 |  |  | FC(F)(F)c1nc2c(Br)c(Br)c(Br)cc2[nH]1 [4,5,6-tribrominated] | IC50 (CK2; [9]): 1.2 µM
6 | −0.079 | 0.7 ± 0.1 | OCc1nc2cc(Cl)c(Cl)cc2[nH]1 [Compound 4c, 5,6-dichloro-2-hydroxymethylo-1H-benzimidazole] | 
7 |  |  | FC(F)(F)c1nc2c(Br)c(Br)c(Br)c(Br)c2[nH]1 [tetrabrominated] | IC50 (CK2; [9]): 0.6 µM
8 |  |  | O=c1[nH]c2c(Br)c(Br)c(Br)c(Br)c2[nH]1 [4,5,6,7-tetrabromo-1H-benzo[d]imidazol-2(3H)-one] | Ki (CK2): 0.2 µM; IC50 (CK2; read-out: IC50 CK2): 0.39 µM
9 | 0.409 | 4.3 ± 0.1 | FC(F)(F)c1nc2cc(I)c(I)cc2[nH]1 [Compound 3e, 5,6-diiodo-2-trifluoromethylo-1H-benzimidazole] | IC50 (hCK2α [3]): 7 ± 4 µM; IC50 [4]: 7 ± 1 µM; IC50 (normal fibroblasts BJ): 55 ± 5 µM; selectivity index (normal fibroblasts BJ; relative to BJ fibroblasts): ~ 10; IC50 [5]: 6 ± 1 µM; IC50 [6]: 6 ± 1 µM
10 | 0.234 | 1.2 ± 0.1 | FC(F)(F)c1nc2cc(Cl)c(Cl)cc2[nH]1 [Compound 3c, 5,6-dichlorlo-2-trifluoromethylo-1H-benzimidazole] | 
11 | −0.579 | 0.4 ± 0.1 | OCc1nc2ccccc2[nH]1 [Compound 4a, 2-hydroxymethylo-1H-benzimidazole] | 
12 | −0.591 | -0.1 ± 0.1 | Nc1cc(F)c(F)cc1N [Compound 1b] | 
13 | −0.548 |  | 6,7-difluoroquinoxaline-1,3-diol [Compound 7b] | ΔTm (hCK2α [1]; [7]): 0.2 ± 0.1 °C
14 | 0.010 | 1.9 ± 0.1 | OCc1nc2cc(Br)c(Br)cc2[nH]1 [Compound 4d, 5,6-dibromo-2-hydroxymethylo-1H-benzimidazole] | IC50 (hCK2α [3]): > 1000 µM; IC50 [4]: 45 ± 5 µM; IC50 (normal fibroblasts BJ): 145 ± 15 µM; IC50 [5]: 21 ± 1 µM; IC50 [6]: 28 ± 3 µM
15 | −0.093 | 1.7 ± 0.1 | Nc1cc(I)c(I)cc1N [Compound 1e, 4,5-diiodobenzene-1,2-diamine] | 
16 | −0.095 | 0.8 ± 0.1 | Fc1cc2nc(C(F)(F)F)[nH]c2cc1F [Compound 3b, 5,6-difluoro-2-trifluoromethylo-1H-benzimidazole] | 
17 | −0.298 | 0.1 ± 0.1 | Nc1cc(Cl)c(Cl)cc1N [Compound 1c] | 
18 | −0.084 | 0.8 ± 0.1 | O=c1[nH]c2cc(Cl)c(Cl)cc2[nH]1 [Compound 5c, 5,6-dichloro-1H-benzo[d]imidazol-2(3H)-one] | 
19 | 0.461 | 0.2 ± 0.1 | Brc1cc2nsnc2cc1Br [Compound 2d, 5,6-dibromo-2,1,3-benzothiadiazole] | 
20 | −0.295 | -0.1 ± 0.1 | c1ccc2nccnc2c1 [Compound 6a, quinoxaline] | 
21 | 0.009 | 0 | c1ccc2nsnc2c1 [Compound 2a, 2,1,3-benzothiadiazole] | 
22 | 0.179 | 0.2 ± 0.1 | Clc1cc2nsnc2cc1Cl [Compound 2c, 5,6-dichloro-2,1,3-benzothiadiazole] | 
23 | −0.174 | 2.7 ± 0.1 | Oc1nc2cc(Br)c(Br)cc2nc1O [Compound 7d] | IC50 (hCK2α [3]): 13 ± 4 µM; IC50 [4]: 385 ± 82 µM; IC50 (normal fibroblasts BJ): 16 ± 2 µM; IC50 [5]: 195 ± 35 µM; IC50 [6]: 850 ± 300 µM
24 | 0.169 | -0.3 ± 0.1 | Fc1cc2nsnc2cc1F [Compound 2b, 5,6-difluoro-2,1,3-benzothiadiazole] | 
25 | −0.208 | 0.2 ± 0.1 | Nc1cc(Br)c(Br)cc1N [Compound 1d] | 
26 | 0.088 | 3.7 ± 0.1 | OCc1nc2cc(I)c(I)cc2[nH]1 [Compound 4e, 5,6-diiodo-2-hydroxymethylo-1H-benzimidazole] | IC50 (hCK2α [3]): 25 ± 5 µM; IC50 [4]: 39 ± 10 µM; IC50 (normal fibroblasts BJ): 15 ± 2 µM; IC50 [5]: 20 ± 2 µM; IC50 [6]: 23 ± 2 µM
27 | 0.468 | 0.2 ± 0.1 | Ic1cc2nsnc2cc1I [Compound 2e, 5,6-diiodo-2,1,3-benzothiadiazole] | 
28 | −0.591 | 0.8 ± 0.1 | O=c1[nH]c2ccccc2[nH]1 [Compound 5a, 1H-benzo[d]imidazol-2(3H)-one] | 
29 | 0.003 | 1.8 ± 0.1 | O=c1[nH]c2cc(Br)c(Br)cc2[nH]1 [Compound 5d, 5,6-dibromo-1H-benzo[d]imidazol-2(3H)-one] | IC50 (hCK2α [3]): > 1000 µM; IC50 [4]: 180 ± 40 µM; IC50 (normal fibroblasts BJ): 40 ± 5 µM; IC50 [5]: 18 ± 3 µM; IC50 [6]: 22 ± 3 µM

Row | Compound | log(τ) HPLC-derived hydrophobicity index [2] | ΔTm at 25 µM (hCK2α [1]; [8]) [°C] | also measured
30 | 6,7-dichloroquinoxaline-1,3-diol [Compound 7c] | −0.227 |  | ΔTm (hCK2α [1]; [7]): 1.2 ± 0.1 °C
31 | FC(F)(F)c1nc2ccccc2[nH]1 [Compound 3a, 2-trifluoromethylo-1H-benzimidazole] | −0.270 |  | ΔTm at 25 µM (hCK2α [1]; pH 8, read-out: ΔTm): 0.4 ± 0.1 °C
32 | quinoxaline-1,3-diol [Compound 7a] | −0.699 |  | ΔTm (hCK2α [1]; [7]): 0.1 ± 0.1 °C
33 | Nc1ccccc1N [Compound 1a, benzo-1,2-diamine] | −0.651 |  | ΔTm at 25 µM (hCK2α [1]; pH 8, read-out: ΔTm): -0.1 ± 0.1 °C
